Measurements reported in patent US12016858B2, “Methods for the treatment of abnormal involuntary movement disorders” (AUSPEX PHARMACEUTICALS, INC., priority 2015, dated 2024).
Read-outs that look alike come from different tables or passages of the source.

Columns and labels:
[1] = Phase 1 pharmacokinetic comparison of deutetrabenazine and tetrabenazine; assay type: in vivo, healthy volunteer subjects; settings: 24-mg dose of deutetrabenazine
Excerpt: The guidance for investigators on conversion of subjects from stable doses of tetrabenazine to deutetrabenazine in the ARC-HD Switch study was designed to minimize the risk that dose conversion would result in either loss of efficacy or increased adverse events. The conversion method applied was based on modeling and simulation of Phase 1 pharmacokinetic data for deutetrabenazine and tetrabenazine. The objective of the pharmacokinetic analysis was to identify an initial dosing regimen of deutetrabenazine predicted to provide exposure at steady state of the active α and β metabolites that was less than or equal to the predicted AUC at steady state of the active alpha and beta metabolites of tetrabenazine, but with a lower Cmax.
In a Phase 1 single-center, open-label, crossover clinical trial, each of 24 healthy volunteer subjects received single doses of 25 mg of tetrabenazine and 15 mg of deutetrabenazine. […]
Subjects in the Switch cohort completed a full screening evaluation. […] The investigator, in consultation with the subject and caregiver, determined when an adequate level of chorea control had been achieved. If a subject experienced a “clinically significant” adverse event attributable to deutetrabenazine, the investigator determined if a dose reduction or suspension was necessary.

[2] = system: subjects with chorea associated with HD
Experimental: First-HD was a randomized, double-blind, placebo-controlled, parallel-group study designed to evaluate the efficacy, safety, and tolerability of deutetrabenazine in subjects with chorea associated with HD. This trial was conducted in the United States and Canada, in collaboration with the Huntington Study Group.
Subjects in First-HD were treated with deutetrabenazine or placebo, starting at 6 mg once per day and titrating weekly to doses of up to 24 mg twice per day (48 mg total maximum daily dose). A total of 90 subjects (45 in each group) were enrolled for evaluation over 13 weeks. Subjects were individually titrated to an optimal dose over up to eight weeks, received maintenance therapy at the optimal dose for four weeks, and were taken off study medication in the final week of the trial.
The primary efficacy endpoint for the study was the change from baseline to maintenance therapy (average of Week 9 and Week 12 values) in the maximal chorea score of the UHDRS. The total maximal score, or TMC, is a clinician-based, quantitative assessment of chorea in seven body regions: face, mouth/tongue, trunk, and the four extremities, with higher scores representing more severe chorea.
The total motor score (TMS) of the UHDRS was prespecified as an additional efficacy endpoint in First-HD. The TMS assesses all the motor features of HD, including items addressing characteristic motor abnormalities other than chorea, such as dystonia, gait, parkinsonism, and postural instability.
The clinical relevance of the change in the TMC score was assessed with four prespecified secondary endpoints that assessed changes from baseline to end of treatment (Week 12). These secondary endpoints were tested in a hierarchical manner: • 1. Treatment success based on patient global impression of change (PGIC); • 2. Treatment success based on clinical global impression of change (CGIC); • 3. Physical Functioning Scale of the SF-36; and • 4. Balance, as assessed by the Berg Balance Test (BBT).
The PGIC and CGIC are single-item questionnaires that ask the subject and investigator, respectively, to assess a subject's overall HD symptoms at specific visits after initiating therapy. Both assessments use a 7-point Likert Scale, with responses ranging from Very Much Worse (−3) to Very Much Improved (+3) to assess overall response to therapy.
Adverse events (AE) and their potential association with treatment were also monitored. Categories of AEs of particular focus included those known to be associated with tetrabenazine use: • Psychiatric disorders: insomnia, depression/agitated depression, abnormal dreams, agitation, anxiety, suicidal ideation, compulsions, impulsive behavior, and sleep disorders; • Nervous system disorders: somnolence, dizziness, akathisia/restlessness, cognitive disorders, drooling, dyskinesia, migraine, headache, loss of consciousness, and syncope (fainting); • General disorders: irritability, fatigue, gait disturbance, chest pain, and hangover; and • Gastrointestinal disorders: diarrhea, dry mouth, constipation, nausea, upper abdominal pain, dyspepsia, frequent bowel movements, gastrointestinal pain, vomiting, dysphagia, flatulence, and salivary hypersecretion.
In addition to AE reporting, rating scales were used to monitor for potential subclinical toxicity due to excessive monoamine depletion. […] These scales applied in First-HD included the Hospital Anxiety and Depression Scale (HADS), the Columbia Suicide Severity Rating Scale (C-SSRS), the Swallowing Disturbance Questionnaire (SDQ), the Unified Parkinson's Disease Rating Scale (dysarthria item) (UPDRS [dysarthria]), the Barnes Akathisia Rating Scale (BARS), and the Epworth Sleepiness Scale (ESS). In addition, the UHDRS, which includes cognitive, behavioral, and functional measures, was performed at key visits.

[3] = Baseline to Maintenance Therapy, N = 45
[4] = baseline to maintenance therapy
[5] = much or very much improved, Week 12, N = 45

[2H]C([2H])([2H])Oc1cc2c(cc1OC([2H])([2H])[2H])C1CC(=O)C(CC(C)C)CN1CC2 (stereo not drawn) [deutetrabenazine, (RR, SS)-1,3,4,6,7,11b-hexahydro-9,10-di(methoxy-d3)-3-(2-methylpropyl)-2H-benzo[a]quinolizin-2-one]
peak concentration (Cmax) vs 50 mg of tetrabenazine [1]: lower peak concentration (Cmax)
systemic exposure (AUC) [1]: comparable systemic exposure (AUC) to 50 mg of tetrabenazine
Absolute Change in Total Maximal Chorea Score, Least Squares Mean (SD) ([2]; Baseline to Maintenance Therapy (mean of Week 9 and Week 12), N = 45): −4.4 (3.0)
Percentage Change in Total Maximal Chorea Score, Least Squares Mean (SD) [2, 3]: −37 (25.7) %
Total Motor Score change, Least Squares Mean (SD) [2, 3]: −7.4 (6.3)
Absolute Change in Total Maximal Chorea Score, Difference in Means (DTBZ − Placebo and 95% CI) ([2]; Baseline to Maintenance Therapy, listed as DTBZ): −2.5 (−3.7, −1.3)
Change in BBT Score, Difference in Means (DTBZ-Placebo) ([2]; Baseline to Week 12): 1.0
Change in SF-36 Physical Functioning Score, Difference in Means (DTBZ − Placebo) and 95% CI ([2]; Baseline to Week 12): 4.3
SF-36 physical functioning score compared with placebo-treated subjects ([2]; Baseline to Week 12): greater improvement in physical function
Change in Berg Balance Test Score, Least Squares Mean ([2]; Baseline to Week 12, N = 45): 2.2
Change in SF-36 Physical Functioning Score, Least Squares Mean (SD) ([2]; Baseline to Week 12, N = 45): 0.74
Change in SF-36 Physical Functioning Score, Least Squares Mean (SD) ([2]; Baseline to Week 12, N = 45, listed as DTBZ): 0.74 (9.773)
Change in SF-36 Physical Functioning Score, Difference in Means (DTBZ − Placebo) and 95% CI ([2]; Baseline to Week 12, listed as DTBZ): 4.34 (0.41, 8.27)
CGIC Treatment Success, Difference in Percentages (DTBZ − Placebo) and 95% CI ([2]; End of Therapy): 29 (11.4, 46.4) %
PGIC Treatment Success, Difference in Percentages (DTBZ − Placebo) and 95% CI ([2]; End of Therapy): 31 (12.4, 49.8) %
Any Nervous System Disorders TEAE ([2]; N = 45): 8 (17.8) n (%)
Any Psychiatric Disorders TEAE ([2]; N = 45): 8 (17.8) n (%)
Any Serious TEAEs ([2]; N = 45): 1 (2.2) n (%)
Any TEAE that led to Withdrawal from the Study ([2]; N = 45): 1 (2.2) n (%)
Any TEAEs Resulting in Dose Reduction ([2]; N = 45): 3 (6.7) n (%)
Any TEAEs Resulting in Dose Suspension ([2]; N = 45): 1 (2.2) n (%)
Any Treatment-Emergent AEs (TEAEs) ([2]; N = 45): 60.0 n (%)
TEAE Abdominal pain upper ([2]; N = 45): 1 (2.2) n (%)
TEAE Abnormal Dreams ([2]; N = 45): 1 (2.2) n (%)
TEAE Agitation ([2]; N = 45): 1 (2.2) n (%)
TEAE Akathisia/Restlessness ([2]; N = 45): 1 (2.2) n (%)
TEAE Anxiety ([2]; N = 45): 1 (2.2) n (%)
TEAE Chest pain ([2]; N = 45): 1 (2.2) n (%)
TEAE Cognitive Disorder ([2]; N = 45): 1 (2.2) n (%)
TEAE Compulsions ([2]; N = 45): 0 n (%)
TEAE Constipation ([2]; N = 45): 2 (4.4) n (%)
TEAE Depression/Agitated Depression ([2]; N = 45): 2 (4.4) n (%)
TEAE Diarrhea ([2]; N = 45): 4 (8.9) n (%)
TEAE Dizziness ([2]; N = 45): 2 (4.4) n (%)
TEAE Drooling ([2]; N = 45): 1 (2.2) n (%)
TEAE Dry mouth ([2]; N = 45): 4 (8.9) n (%)
TEAE Dyskinesia ([2]; N = 45): 1 (2.2) n (%)
TEAE Dyspepsia ([2]; N = 45): 1 (2.2) n (%)
TEAE Dysphagia ([2]; N = 45): 0 n (%)
TEAE Fatigue ([2]; N = 45): 3 (6.7) n (%)
TEAE Flatulence ([2]; N = 45): 0 n (%)
TEAE Frequent bowel movements ([2]; N = 45): 1 (2.2) n (%)
TEAE Gait disturbance ([2]; N = 45): 1 (2.2) n (%)
TEAE Gastrointestinal pain ([2]; N = 45): 1 (2.2) n (%)
TEAE Hangover ([2]; N = 45): 1 (2.2) n (%)
TEAE Headache ([2]; N = 45): 0 n (%)
TEAE Impulsive Behavior ([2]; N = 45): 0 n (%)
TEAE Insomnia ([2]; N = 45): 3 (6.7) n (%)
TEAE Irritability ([2]; N = 45): 3 (6.7) n (%)
TEAE Loss of Consciousness ([2]; N = 45): 0 n (%)
TEAE Migraine ([2]; N = 45): 1 (2.2) n (%)
TEAE Nausea ([2]; N = 45): 1 (2.2) n (%)
TEAE Salivary hypersecretion ([2]; N = 45): 0 n (%)
TEAE Sleep disorder ([2]; N = 45): 0 n (%)
TEAE Somnolence ([2]; N = 45): 11.1 n (%)
TEAE Suicidal Ideation ([2]; N = 45): 1 (2.2) n (%)
TEAE Syncope ([2]; N = 45): 0 n (%)
TEAE Vomiting ([2]; N = 45): 0 n (%)
Any Treatment-Emergent AEs (TEAEs) ([2]; N = 45, listed as DTBZ): 27 (60.0) n (%)
TEAE Somnolence ([2]; N = 45, listed as DTBZ): 5 (11.1) n (%)
Absolute Change in Total Maximal Chorea Score, Difference in Means (DTBZ − Placebo and 95% CI) [2, 4]: −2.5
Percentage Change in Total Maximal Chorea Score, Difference in Means (DTBZ − Placebo and 95% CI) [2, 4]: −21 (−30.5, −11.1) %
TMC improved [2, 4]: 37%
Total Motor Score change, Difference in Means (DTBZ − Placebo) and 95% CI [2, 4]: −4.0 (−6.5, −1.5)
improvement in the TMS compared with placebo [2, 4]: 4.0 units
reduction in maximal chorea compared with placebo [2, 4]: 21 percentage points
reduction on the TMC score compared with placebo [2, 4]: 2.5 units
total maximal dystonia score improvement [2, 4]: 0.9 (SE 0.24) points
UHDRS Behavioral Assessment (Part III) mean total behavior score compared with the placebo group ([2]; difference did not achieve statistical significance): improvement in the in the mean total behavior score
AEs of parkinsonism or dysphagia ([2]; in vivo): no AEs of parkinsonism or dysphagia were reported
balance (Berg Balance Test) at end of treatment ([2]; in vivo): did not worsen balance
changes in the parkinsonism subscore (UHDRS motor) vs placebo ([2]; in vivo): no significant difference
hypotension, dizziness, or orthostasis (vital signs) ([2]; in vivo): no evidence that hypotension, dizziness, or orthostasis was associated
parkinsonism subscore of the UHDRS Motor Assessment (Part I) ([2]; in vivo): did not identify evidence of parkinsonism
safety scales (HADS, C-SSRS, UPDRS dysarthria, BARS, ESS) ([2]; in vivo): did not cause depression, anxiety, suicidality, akathisia, somnolence, or difficulty speaking
somnolence, drug-placebo difference ([2]; in vivo): 6.7%
tolerability ([2]; in vivo): generally well tolerated
Clinical Global Impression of Change: Treatment Success at the End of Therapy [2, 5]: 42%
Patient Global Impression of Change: Treatment Success at the End of Therapy [2, 5]: 51%
SF-36 physical functioning mean improvement over placebo ([2]; subjects with more severe chorea at baseline (TMC>12; n=49)): 7.1 units
